“Also recorded” adds a separate entry of the source. Ends that are not written are not given here.
Assays:
CAL PDZ domain [1] = molecular target: T1, CAL PDZ domain (Homo sapiens, UniProt Q9HD26); assay: fluorescence polarization (FP) competition binding; settings: for Ki: FP competition, compared with best previously known hexamer (iCAL35), read-out: Experimental Ki, mark †
Source text: The inhibitor dissociation constants of top- and poorly-ranked peptide sequences from the [drawing 176] CAL-CFTR design were experimentally determined. As a control, the best known peptide hexamer was also retested. The corresponding N-terminally acetylated peptides were purchased from NEO BioScience (Cambridge, MA) and the [drawing 177] values for the peptides were detected using fluorescence polarization (FP), using the method previously described in [59]. […] Each peptide inhibitor was serially diluted and the protein-peptide mixture was added to each dilution. Finally, the amount of competitive inhibition was tracked using residual fluorescence polarization at temperatures between [drawing 178] . Each [drawing 179] value is reported as an average of three FP experiments conducted on separate days along with the corresponding standard deviation.

ΔF508-CFTR chloride flux [2] = settings: CFBE-ΔF cells, identical experimental conditions; ref [1]; cited from earlier work
Source text: While this effect is clearly statistically significant ( ), we also wished to assess its magnitude relative to the effect of known rescue compounds. The performance of kCAL01 was benchmarked using polarized human airway epithelial cells derived from a CF patient (stably expressing ΔF508-CFTR; CFBE- F cells). In these cells, CFTR rescue is more challenging than in heterologous cells, but the levels of rescue observed are more likely to reflect the physiological situation. Since CFTR modulation is extremely sensitive to experimental con ...

ΔF508-CFTR chloride flux [3] = assay: Ussing chamber chloride flux in CFBE-ΔF cells; assay type: cell-based, human; settings: polarized CFBE-ΔF monolayers, 3.5 hour incubation; for improvement in chloride secretion with respect to control peptide kCAL31: peptide delivered with BioPORTER, change in short circuit current on CFTR-specific inhibitor after amiloride, forskolin, genistein
Method: Ussing chamber experiments were performed as described previously. Polarized monolayers of patient-derived bronchial epithelial cells, CFBE- [drawing 180] F cells (a generous gift of Dr. J.P. Clancy, [63]), were maintained in MEM with 2 mM l-glutamine, 10% fetal bovine serum, 50 units/mL penicillin, [drawing 181] streptomycin, [drawing 182] puromycin, [drawing 183] plasmocin, and [drawing 184] amphotericin B. Cells were grown at [drawing 185] in 5% [drawing 186] . Twenty four hours before treatment the cells were moved to MEM with only penicillin and streptomycin. Peptides were dissolved in DMSO and diluted to [drawing 187] in PBS. Peptide solutions were applied to cells following incubation with BioPORTER delivery reagent (Sigma). […] Following a 3.5 hour incubation with peptide, short circuit currents ( [drawing 188] ) were monitored in Ussing chambers. Following treatment with amiloride, forskolin, and genistein, ΔF508-CFTR chloride flux was measured as the change in [drawing 189] when the CFTR-specific inhibitor, [drawing 190] [64], [65], was applied to the cell monolayer. All measurements were performed at [drawing 191] .

CAL PDZ domain [4] = molecular target: T1, CAL PDZ domain; assay: ProLib profile library SPOT array; assay type: binding; settings: 10 µg/ml His-tagged CAL PDZ domain, anti-His/anti-mouse-HRP detection
Method: After the [drawing 124] predictions were calculated, the binding of C-termini peptides to CAL was also experimentally assessed using an additional SPOT array. The profile library array (ProLib; Fig. S3 in Text S1) was designed based on the following motif: bbbb [drawing 125] (B = permutation of a defined set of amino acids, b = mixture of 17 amino acids, without C, M and W). The defined set of amino acids were selected based on the HumLib results combined with substitutional analyses with [drawing 126] = A/C/D/E/F/I/K/L/M/N/Q/R/S/T/V/W/Y, [drawing 127] = S/T, [drawing 128] = A/C/D/E/F/I/K/L/M/N/Q/R/S/T/V/W/Y, [drawing 129] = I/L/V (Total number of peptides = 1734+22 internal control sequences). Incubation condition: [drawing 130] His-tagged CAL PDZ domain detected by anti-His (Sigma; 1∶2600)/anti-mouse-HRP (Calbiochem; 1∶2000) antibody sandwich.
Fig. S3. CAL binding data for ProLib spot array. We selected the amino acid prefer-ences of the last 4 C-terminal ligand residues based on their frequency deduced from the 6223-Humlib and the substitutional analysis. […] Incubation condition: 10 µg/ml His-tagged CAL PDZ domain detected by anti-His (Sigma; 1:2600)/anti-mouse-HRP (Calbiochem; 1:2000) antibody sand- […]

Ac-WQFTRL [kCAL02, Ac-WQFTRL]
Ki (CAL PDZ domain [1]): < 14 µM

COc1ccc(Cl)cc1Nc1nc(-c2sc(NC(=O)c3ccccc3)nc2C)cs1 [corr-4a]
increase in ΔF508-CFTR levels (ΔF508-CFTR chloride flux [2]): 15%

Ac-WQKTRL [kCAL03, Ac-WQKTRL]
Ki (CAL PDZ domain [1]): < 14 µM

Ac-WQDSGI [kCAL31]
Experimental Ki (inhibitor dissociation constant) (CAL PDZ domain [1]; FP competition with labeled peptide, 25 mM Tris-HCl pH 8.5, 150 mM NaCl, 0.1 mg/mL bovine IgG, 0.5 mM Thesit, average of three FP experiments on separate days): no binding was detected; also recorded: no CAL binding detected

Ac-WQVTRV [kCAL01, Ac-WQVTRV]
improvement in chloride secretion with respect to reference peptide iCAL35 (ΔF508-CFTR chloride flux [3]; BioPORTER delivery): 8% | improvement in chloride secretion with respect to control peptide kCAL31 (ΔF508-CFTR chloride flux [3]): 12% | binding efficiency (ratio of inhibitor potency, ΔG, to molecular mass) relative to F*-iCAL36 (CAL PDZ domain [1]): approximately twice | improvement in CAL binding affinity compared to iCAL35 (CAL PDZ domain [1]; FP): six-fold | improvement in CAL binding affinity over HumLib01 (CAL PDZ domain [1]; FP): six-fold | Ki (CAL PDZ domain [1]): < 14 µM | fold higher affinity than any comparable natural ligand (CAL PDZ domain [1]; versus best known natural ligand ANGLMQTSKL): 9 fold | fold tighter binding to CAL than the CFTR C-terminus (CAL PDZ domain [1]; versus wild-type CFTR sequence TEEEVQDTRL): 170 fold

Ac-WQRTRL [kCAL04, Ac-WQRTRL]
Ki (CAL PDZ domain [1]): < 14 µM

WQSTRL [HumLib01]
improvement in CAL binding affinity compared to iCAL35 (CAL PDZ domain [1]; FP): only a marginal improvement | CAL binding in ProLib array (CAL PDZ domain [4]): strongest binder

WQTSII [iCAL35, reference compound]
improvement in chloride secretion with respect to control peptide kCAL31 (ΔF508-CFTR chloride flux [3]): 4%

Ac-WQKTRI [kCAL05, Ac-WQKTRI]
Ki (CAL PDZ domain [1]): < 14 µM
